{"source": "patent US11351151B2", "about": "“Compound having anticancer activity and preparation method and application” (3D Medicines (Beijing) Co., Ltd., priority 2016, dated 2022)", "type_in_all_cases": "cell-based", "key": {"TE-6": {"system": "TE-6", "test": "Cell proliferation assay (Alamar Blue)", "details": "Homo sapiens, 144 h; TE-6 tumor cell line; 6 days", "how_it_was_run": "(§1)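 6 d continuous exposure, 37 °C/5% CO2; 9 conc., 3.16× steps from 30 or 100 μM; n=2/conc. Readout resazurin fluor. 560/590 nm, 1–4 h dye. % inhib. normalised to 0%/100% inhibition controls → IC50 (4-param).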"}, "LC-2-ad": {"system": "LC-2-ad", "test": "Cell proliferation assay (Alamar Blue)", "details": "Homo sapiens, 144 h; LC-2-ad tumor cell line; 6 days", "how_it_was_run": "as §1"}, "NCl-H661": {"system": "NCl-H661", "test": "Cell proliferation assay (Alamar Blue)", "details": "144 h; NCl-H661 tumor cell line; 6 days", "how_it_was_run": "as §1"}, "MDA-MB-435S": {"system": "MDA-MB-435S", "test": "Cell proliferation assay (Alamar Blue)", "details": "Homo sapiens, 144 h; MDA-MB-435S tumor cell line; 6 days", "how_it_was_run": "as §1"}, "Hep3B2.1-7": {"system": "Hep3B2.1-7", "test": "Cell proliferation assay (Alamar Blue)", "details": "144 h; Hep3B2.1-7 liver cancer cell line; 6 days", "how_it_was_run": "as §1"}, "CCRF-CEM": {"system": "CCRF-CEM", "test": "Cell proliferation assay (Alamar Blue)", "details": "Homo sapiens, 144 h; CCRF-CEM tumor cell line; 6 days", "how_it_was_run": "as §1"}, "TE-15": {"system": "TE-15", "test": "Cell proliferation assay (Alamar Blue)", "details": "Homo sapiens, 144 h; TE-15 tumor cell line; 6 days", "how_it_was_run": "as §1"}, "JHH5": {"system": "JHH5", "test": "Cell proliferation assay (Alamar Blue)", "details": "144 h; JHH5 liver cancer cell line; 6 days", "how_it_was_run": "as §1"}, "[1]": {"system": "54 commercial tumor cell lines", "test": "Cell proliferation assay (Alamar Blue), summary over the panel", "details": "in almost all tumor cell lines", "experimental": "1. Instruments and Materials • Thermo 311 CO2 incubator; Haier biosafety cabinet; Molecular Devices microplate reader; Xiangyi brand L530 desktop low speed centrifuge; Olympus IX51 inverted fluorescence microscope, DMEM, RPMI 1640, MEM, DMEM/F12 1:1 medium, Fetal bovine serum, 0.25% trypsin solution, phosphate buffer (Thermo Fisher Shanghai Co., Ltd.); sigma dimethyl sulfoxide (DMSO), resazurin; 54 commercial tumor cell lines (including 26 liver cancer cell lines). Experimental drugs: compounds 1-12 and active drug Linifanib; chemotherapeutic drug Doxorubicin (HY-15142; Shanghai Qianyuan Biomedical Technology Co., Ltd.).\n2. Experimental Methods • 2.1 Cultivation of different cell lines • 54 cell lines were cultured in a culture medium containing fetal bovine serum and placed in a 5% CO 2 incubator at 37° C. for incubation. The cells were all grown in an adherent state, and the growth was observed under an inverted microscope, and subculture was performed when the cell confluence rate reached 80%-90%. The proportion and quantity of passage were determined by experimental needs. The ratio of subculture of this cell line was generally 1:2^˜1:3. • 2.2 inhibition effect on the proliferation of different tumor cell lines • Cell test: 54 cell lines in logarithmic growth phase were inoculated in 96-well culture plates at 500^˜1×10^4/well (the optimal seeding density of each cell line was determined in pre-experiment), After incubating at 37° C. for 4 h in a 5% CO2 humidification incubator, added 10 μL of compounds 1-12 or Linifanib to each well, and tested 9 drug concentration gradients for each compound (diluted from the highest concentration of the test by 3.16 times). The solubility of each compound was different at a starting concentration of 30 or 100 μM, respectively. The QC reference compound Doxorubicin was added simultaneously to each cell line test, and the final drug concentrations were 10, 3.16, 1, 0.31, 0.1, 0.03, 0.01, 0.003, and 0.001 μM, respectively. In addition, a positive control group (100% inhibition) and a negative control group (0% inhibition) were set at the same time. The drug group was repeated for 2 wells per concentration, and the positive control group and the negative control group were repeated for 6 wells. After the culture was continued for 6 days in the incubator, AlamarBlue test operation was followed; • AlamarBlue test procedure: Incubated with 10 μL of AlamarBlue reagent per well for 1-4 h, shook for 1-2 min, MD microplate reader EX: 560 nm, EM: 590 nm wavelength to measure fluorescence, recorded the results, calculated the cell inhibition rate of the compound of the invention. […]"}}, "note": "pIC50: −log10 of the molar value.", "data": [{"compound": "Cc1ccc(F)c(NC(=O)Nc2ccc(-c3cccc4c3c(N)nn4C(=O)C[C@H](N)C(=O)N[C@@H](CCC(=O)N[C@@H](CCC(=O)N[C@@H](CCC(=O)N[C@@H](CCC(=O)O)C(=O)O)C(=O)O)C(=O)O)C(=O)O)cc2)c1", "note": "[Compound 2]", "values": [{"measurement": "pIC50", "setting": "TE-6", "result": 5.15}, {"measurement": "pIC50", "setting": "LC-2-ad", "result": 4.87}, {"measurement": "pIC50", "setting": "NCl-H661", "result": 4.95}, {"measurement": "pIC50", "setting": "MDA-MB-435S", "result": 4.52}, {"measurement": "pIC50", "setting": "Hep3B2.1-7", "result": 5.46}, {"measurement": "pIC50", "setting": "CCRF-CEM", "result": 5.20}, {"measurement": "pIC50", "setting": "TE-15", "result": 5.07}, {"measurement": "pIC50", "setting": "JHH5", "result": 4.67}, {"measurement": "IC50 values compared with Linifanib", "setting": "[1]", "result": "close to those of Linifanib"}]}, {"compound": "Cc1ccc(F)c(NC(=O)Nc2ccc(-c3cccc4c3c(N)nn4C(=O)C[C@H](N)C(=O)O)cc2)c1", "note": "[Compound 10]", "values": [{"measurement": "pIC50", "setting": "TE-6", "result": 5.39}, {"measurement": "pIC50", "setting": "LC-2-ad", "result": 5.20}, {"measurement": "pIC50", "setting": "NCl-H661", "result": 5.26}, {"measurement": "pIC50", "setting": "MDA-MB-435S", "result": 4.87}, {"measurement": "pIC50", "setting": "Hep3B2.1-7", "result": 5.91}, {"measurement": "pIC50", "setting": "CCRF-CEM", "result": 5.76}, {"measurement": "pIC50", "setting": "TE-15", "result": 5.20}, {"measurement": "pIC50", "setting": "JHH5", "result": 4.91}, {"measurement": "IC50 values compared with Linifanib", "setting": "[1]", "result": "close to those of Linifanib"}]}, {"compound": "Cc1ccc(F)c(NC(=O)Nc2ccc(-c3cccc4c3c(N)nn4C(=O)C[C@H](N)C(=O)N[C@@H](CCC(=O)O)C(=O)O)cc2)c1", "note": "[Compound 1]", "values": [{"measurement": "pIC50", "setting": "TE-6", "result": 5.37}, {"measurement": "pIC50", "setting": "LC-2-ad", "result": 5.05}, {"measurement": "pIC50", "setting": "NCl-H661", "result": 5.15}, {"measurement": "pIC50", "setting": "MDA-MB-435S", "result": 4.72}, {"measurement": "pIC50", "setting": "Hep3B2.1-7", "result": 5.80}, {"measurement": "pIC50", "setting": "CCRF-CEM", "result": 5.60}, {"measurement": "pIC50", "setting": "TE-15", "result": 5.12}, {"measurement": "pIC50", "setting": "JHH5", "result": 4.82}, {"measurement": "IC50 values compared with Linifanib", "setting": "[1]", "result": "close to those of Linifanib"}]}]}
